What was measured:
Assay in all cases: relative viability (nuclei count vs DMSO), 5 days (fraction); higher = more cells survive
Vemurafenib + Navitoclax = compound: CCCS(=O)(=O)Nc1ccc(F)c(C(=O)c2c[nH]c3ncc(-c4ccc(Cl)cc4)cc23)c1F [Vemurafenib] + CC1(C)CCC(c2ccc(Cl)cc2)=C(CN2CCN(c3ccc(C(=O)NS(=O)(=O)c4ccc(N[C@H](CCN5CCOCC5)CSc5ccccc5)c(S(=O)(=O)C(F)(F)F)c4)cc3)CC2)C1 [Navitoclax] (partner 0.5 µM)
Summary of the method: (§1)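 Nuclei were stained with Hoechst during a one-step fixation (final 0.05% Triton X-100, 1% formaldehyde, 1 ug/ml Hoechst) carried out 5 days after dosing, then counted on 4× images. The cells, lung cancer lines in 1536-well plates, had been dosed by pin tool the day after seeding with one drug alone or a fixed anchor-drug dose plus five library-drug doses (not always all listed) in √10 steps. Relative viability is the nuclei count in treated wells divided by that in vehicle wells, and each value is the median of duplicate plates.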

Vemurafenib + Alpelisib = compound: CCCS(=O)(=O)Nc1ccc(F)c(C(=O)c2c[nH]c3ncc(-c4ccc(Cl)cc4)cc23)c1F [Vemurafenib] + Cc1nc(NC(=O)N2CCC[C@H]2C(N)=O)sc1-c1ccnc(C(C)(C)C(F)(F)F)c1 [Alpelisib] (partner 2 µM)
Summary of the method: as §1

OSI-027 + Foretinib = compound: COc1cccc2cc(-c3nc([C@H]4CC[C@H](C(=O)O)CC4)n4ncnc(N)c34)[nH]c12 [OSI-027] + COc1cc2c(Oc3ccc(NC(=O)C4(C(=O)Nc5ccc(F)cc5)CC4)cc3F)ccnc2cc1OCCCN1CCOCC1 [Foretinib] (partner 0.25 µM)
Summary of the method: as §1

OSI-027 + Alpelisib = compound: COc1cccc2cc(-c3nc([C@H]4CC[C@H](C(=O)O)CC4)n4ncnc(N)c34)[nH]c12 [OSI-027] + Cc1nc(NC(=O)N2CCC[C@H]2C(N)=O)sc1-c1ccnc(C(C)(C)C(F)(F)F)c1 [Alpelisib] (partner 2 µM)
Summary of the method: as §1

Row | Cell Line | relative viability (Vemurafenib + Navitoclax; first compound 0.03162 µM) | relative viability (Vemurafenib + Navitoclax; first compound 0.1 µM) | relative viability (Vemurafenib + Navitoclax; first compound 0.3162 µM) | relative viability (Vemurafenib + Navitoclax; first compound 1 µM) | relative viability (Vemurafenib + Alpelisib; first compound 0.03162 µM) | relative viability (Vemurafenib + Alpelisib; first compound 0.1 µM) | relative viability (Vemurafenib + Alpelisib; first compound 0.3162 µM) | relative viability (Vemurafenib + Alpelisib; first compound 1 µM) | relative viability (OSI-027 + Foretinib; first compound 0.01 µM) | relative viability (OSI-027 + Foretinib; first compound 0.03162 µM) | relative viability (OSI-027 + Foretinib; first compound 0.1 µM) | relative viability (OSI-027 + Foretinib; first compound 0.3162 µM) | relative viability (OSI-027 + Foretinib; first compound 1 µM) | relative viability (OSI-027 + Alpelisib; first compound 0.01 µM) | relative viability (OSI-027 + Alpelisib; first compound 0.03162 µM) | relative viability (OSI-027 + Alpelisib; first compound 0.1 µM) | relative viability (OSI-027 + Alpelisib; first compound 0.3162 µM) | relative viability (OSI-027 + Alpelisib; first compound 1 µM)
1 | NCI-H460 | 1.17 | 1.14 | 1.02 | 1.07 | 0.349 | 0.357 | 0.631 | 0.593 | 1.06 | 0.762 | 1 | 0.948 | 0.582 | 0.541 | 0.404 | 0.314 | 0.168 | 0.119
2 | NCI-H1915 | 0.757 | 0.795 | 0.745 | 0.789 | 1.02 | 1.04 | 1.03 | 0.993 | 1.23 | 1.14 | 1.12 | 1.03 | 0.582 | 1.11 | 1.12 | 1.13 | 0.956 | 0.605
3 | NCI-H2126 | 0.808 | 0.778 | 0.825 | 0.83 | 0.718 | 0.709 | 0.758 | 0.789 | 1.3 | 0.983 | 1.2 | 0.862 | 0.786 | 0.764 | 0.69 | 0.694 | 0.603 | 0.399
4 | EPLC-272H | 1.05 | 0.916 | 1.13 | 1.06 | 0.927 | 0.676 | 0.942 | 0.889 | 0.712 | 0.498 | 0.594 | 0.41 | 0.236 | 0.889 | 0.866 | 0.828 | 0.619 | 0.599
5 | PC-3 [JPC-3] | 0.728 |  | 0.936 | 0.788 | 0.985 |  | 1.11 | 1.07 | 1.02 | 0.976 | 0.963 | 0.98 | 0.454 | 1.06 | 1.03 | 0.986 | 0.802 | 0.43
6 | NCI-H2087 | 0.936 | 0.915 |  | 0.987 | 1.08 | 1.02 |  | 1.07 | 1.11 | 1.1 | 1.01 | 0.863 | 0.39 | 1.12 | 1.21 | 0.947 | 0.625 | 0.398
7 | NCI-H1666 | 0.932 |  | 1.06 | 0.972 | 0.872 |  | 1.07 | 0.965 | 1 | 0.942 | 0.922 | 0.795 | 0.783 | 0.869 | 1.02 | 0.658 | 0.43 | 0.488
8 | NCI-H2009 | 1.14 | 1.13 | 1.01 | 1.05 | 1.16 | 1.1 | 1.02 | 1.11 | 1.25 | 1.14 | 1.18 | 1.11 | 0.801 | 1.14 | 1.14 | 1.07 | 0.999 | 0.568
9 | NCI-H2228 | 0.687 | 0.752 | 1.04 | 0.841 | 0.964 | 0.752 | 0.905 | 0.627 | 0.887 | 0.791 | 0.831 | 0.745 | 0.439 | 0.934 | 0.808 | 0.674 |  | 0.546

— the supplement of paper PMC10307832
